Experimental data: patent US5506216A, “Cyclodextrin-biocide complex” (Boehringer Mannheim GmbH, priority 1993, dated 1996)
Read-outs that look alike come from different tables or passages of the source.

Experiments:
Assay in all cases: MIC of included and free biocides on agar
Assay type in all cases: cell-based
Details in all cases: for MIC: read-out: MIC of included and free biocides
[1] = test system: Bacillus subtilis (gram +)
Protocol: (§1) The spectrum of activity of the individual biocide inclusion complexes was determined on bacteria (gram-positive and gram-negative strains), yeasts and fungi (see Table 1). The values are stated as MIC values (=minimum inhibitory concentration) in mg/ml.
(§2) The determination of the growth of the microorganisms was carried out on M121 medium (Sabouraud, 2% maltose nutrient agar (Merck)) for yeasts and fungi and on M130 medium (standard I nutrient agar (Merck)) for bacteria after 72 hours at 28° C. The amount of active substance in the CD inclusion compounds is less than 10%.

[2] = test system: Escherichia coli (gram -)
Protocol: as §1, §2

[3] = test system: Aspergillus oryzae (fungus)
Protocol: as §1, §2

[4] = test system: Staphylococcus aureus (gram +)
Protocol: as §1, §2

[5] = test system: Pseudomonas fluorescens (gram -)
Protocol: as §1, §2

Candida albicans (yeast) = test system: Candida albicans (yeast)
Protocol: as §1, §2

[6] = M130 medium, 72 hours at 28° C., active substance in complexes <10%
[7] = M121 medium, 72 hours at 28° C., active substance in complexes <10%

## 1,2-benzisothiazolin-3-thion [Proxel]
[1]; [6]
  MIC of included and free biocides: < 40 mg/L
[2]; [6]
  MIC of included and free biocides: < 40 mg/L
[3]; [7]
  MIC of included and free biocides: 75 mg/L
[4]; [6]
  MIC of included and free biocides: < 40 mg/L
[5]; [6]
  MIC of included and free biocides: < 40 mg/L
Candida albicans (yeast); [7]
  MIC of included and free biocides: 40 mg/L

## CNC(=O)c1ccccc1SSc1ccccc1C(=O)NC [Densil P, dithio-2,2'-bis(benzmethylamide)]
[1]; [6]
  MIC: < 40 mg/L
[2]; [6]
  MIC: 75 mg/L
[3]; [7]
  MIC: < 40 mg/L
[4]; [6]
  MIC: < 40 mg/L
[5]; [6]
  MIC: 300 mg/L
Candida albicans (yeast); [7]
  MIC: 600 mg/L

## N#CSCSC#N [methylenebisthiocyanate]
[1]; 72 h
  MIC: 75 mg/L
[2]; 72 h
  MIC: < 40 mg/L
[3]; 72 h
  MIC: 20 mg/L
[4]; 72 h
  MIC: 17.5 mg/L
[5]; 72 h
  MIC: < 40 mg/L
Candida albicans (yeast); 72 h
  MIC: 20 mg/L

## Oc1ccccc1-c1ccccc1 [o-phenylphenol]
[1]; 72 h
  MIC: 1250 mg/L
[2]; 72 h
  MIC: 1250 mg/L
[3]; 72 h
  MIC: 300 mg/L
[4]; 72 h
  MIC: 1250 mg/L
[5]; 72 h
  MIC: 1250 mg/L
Candida albicans (yeast); 72 h
  MIC: 600 mg/L
